Data reported in patent US9745283B2, “Uracil derivatives as AXL and c-MET kinase inhibitors” (priority 2011, dated 2017).

Key:
[1] = target: recombinant human baculovirus-expressed AXL (Homo sapiens (Human), UniProt P30530); assay: AXL Kinase Assay (HTRF KinEASE); type: biochemical; settings: average of two or more determinations
[2] = target: recombinant human baculovirus-expressed cMET (Homo sapiens (Human), UniProt P08581); assay: C-MET Kinase Assay (HTRF KinEASE); type: biochemical; settings: average of two or more determinations; read-out: c-MET IC50
Outline: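 HTRF KinEASE format with recombinant human baculovirus-expressed cMET at 8 ng/mL, biotinylated peptide at 0.1 μM and ATP at 0.02 μM. IC50 came from percent control activity versus log concentration, fitted by nonlinear regression to a variable-slope sigmoidal equation with bottom fixed at 0 and top at 100.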

Row | IC50 [1] | IC50 [2] | Structure (SMILES)
1 | < 10 nM | 10 to 100 nM | CCn1cc(C(=O)Nc2cc(F)c(Oc3ccnc4cc(OC)c(OC)cc34)c(F)c2)c(=O)n(-c2ccc(F)cc2)c1=O [Example 90, 1-Ethyl-3-(4-fluoro-phenyl)-2,4-dioxo-1,2,3,4-tetrahydro-pyrimidine-5-carboxylic acid [4-(6,7-dimethoxy-quinolin-4-yloxy)-3,5-difluoro-phenyl]-amide]
2 | < 10 nM | 10 to 100 nM | CCOc1cc2nccc(Oc3ccc(NC(=O)c4cn(CC)c(=O)n(-c5ccc(F)cc5)c4=O)cc3F)c2cc1OCC [Example 33, 1-Ethyl-3-(4-fluorophenyl)-2,4-dioxo-1,2,3,4-tetrahydropyrimidine-5-carboxylic acid [4-(6,7-diethoxyquinolin-4-yloxy)-3-fluorophenyl]-amide]
3 | < 10 nM | < 10 nM | COc1cc2nccc(Oc3ccc(NC(=O)c4cn(CCO)c(=O)n(-c5ccc(F)cc5)c4=O)cc3)c2cc1OC [Example 53, 3-(4-Fluorophenyl)-1-(2-hydroxyethyl)-2,4-dioxo-1,2,3,4-tetrahydropyrimidine-5-carboxylic acid [4-(6,7-dimethoxyquinolin-4-yloxy)phenyl]-amide]
4 | < 10 nM | 10 to 100 nM | COc1cc2nccc(Oc3ccc(NC(=O)c4cn(CC(=O)N5CCCC5)c(=O)n(-c5ccc(F)cc5)c4=O)cc3F)c2cc1OC [Example 82, 3-(4-Fluoro-phenyl)-2,4-dioxo-1-(2-oxo-2-pyrrolidin-1-yl-ethyl)-1,2,3,4-tetrahydro-pyrimidine-5-carboxylic acid [4-(6,7-dimethoxy-quinolin-4-yloxy)-3-fluoro-phenyl]-amide]
5 | < 10 nM | < 10 nM | COc1cc2nccc(Oc3ccc(NC(=O)c4nn(CCO)c(=O)n(-c5ccc(F)cc5)c4=O)cc3F)c2cc1OC [Example 108, 4-(4-Fluorophenyl)-2-(2-hydroxyethyl)-3,5-dioxo-2,3,4,5-tetrahydro-[1,2,4]triazine-6-carboxylic acid [4-(6,7-dimethoxyquinolin-4-yloxy)-3-fluorophenyl]-amide]
6 | < 10 nM | < 10 nM | COc1cc2nccc(Oc3ccc(NC(=O)c4cn(CCn5ccnc5)c(=O)n(-c5ccc(F)cc5)c4=O)cc3F)c2cc1OC [Example 62, 3-(4-Fluoro-phenyl)-1-(2-imidazol-1-yl-ethyl)-2,4-dioxo-1,2,3,4-tetrahydro-pyrimidine-5-carboxylic acid [4-(6,7-dimethoxy-quinolin-4-yloxy)-3-fluoro-phenyl]-amide]
7 | < 10 nM | 10 to 100 nM | COc1cc2nccc(Oc3ccc(NC(=O)c4cn(C5CCC5)c(=O)n(-c5ccc(F)cc5)c4=O)cc3F)c2cc1OC [Example 29, 1-Cyclobutyl-3-(4-fluorophenyl)-2,4-dioxo-1,2,3,4-tetrahydropyrimidine-5-carboxylic acid [4-(6,7-dimethoxyquinolin-4-yloxy)-3-fluorophenyl]-amide]
8 | < 10 nM | 10 to 100 nM | CCOCCn1cc(C(=O)Nc2ccc(Oc3ccnc4cc(OC)c(OC)cc34)c(F)c2)c(=O)n(-c2ccc(F)cc2)c1=O [Example 4, 1-(2-Ethoxyethyl)-3-(4-fluorophenyl)-2,4-dioxo-1,2,3,4-tetrahydropyrimidine-5-carboxylic acid [4-(6,7-dimethoxyquinolin-4-yloxy)-3-fluorophenyl]-amide]
9 | < 10 nM | 10 to 100 nM | CCn1cc(C(=O)Nc2ccc(Oc3ccnc4cc(OC)c(OC)cc34)cn2)c(=O)n(-c2ccc(F)cc2)c1=O [Example 31, 1-Ethyl-3-(4-fluorophenyl)-2,4-dioxo-1,2,3,4-tetrahydropyrimidine-5-carboxylic acid [5-(6,7-dimethoxyquinolin-4-yloxy)-pyridin-2-yl]-amide]
10 | < 10 nM | < 10 nM | CCn1c(C)c(C(=O)Nc2ccc(Oc3ccnc4cc(OC)c(OC)cc34)c(F)c2)c(=O)n(-c2ccc(F)cc2)c1=O [Example 32, 1-Ethyl-3-(4-fluorophenyl)-6-methyl-2,4-dioxo-1,2,3,4-tetrahydropyrimidine-5-carboxylic acid [4-(6,7-dimethoxyquinolin-4-yloxy)-3-fluorophenyl]-amide]
11 | < 10 nM | 10 to 100 nM | COc1cc2nccc(Oc3ccc(NC(=O)c4cn(CCCOCc5ccccc5)c(=O)n(-c5ccc(F)cc5)c4=O)c(F)c3)c2cc1OC [Example 22, 1-(3-Benzyloxypropyl)-3-(4-fluorophenyl)-2,4-dioxo-1,2,3,4-tetrahydropyrimidine-5-carboxylic acid [4-(6,7-dimethoxyquinolin-4-yloxy)-2-fluorophenyl]-amide]

Continued, compound first:

Row | Structure (SMILES) | IC50 [1] | IC50 [2]
12 | COc1cc2nccc(Oc3ccc(NC(=O)c4cn(CC5CCCO5)c(=O)n(-c5ccc(F)cc5)c4=O)cc3F)c2cc1OC (stereo not shown) [Example 73, 3-(4-Fluoro-phenyl)-2,4-dioxo-1-(tetrahydro-furan-2-ylmethyl)-1,2,3,4-tetrahydro-pyrimidine-5-carboxylic acid [4-(6,7-dimethoxy-quinolin-4-yloxy)-3-fluoro-phenyl]-amide] | < 10 nM | 10 to 100 nM
13 | COc1cc2nccc(Oc3ccc(NC(=O)c4cn(CCO)c(=O)n(-c5ccc(F)cc5)c4=O)cc3F)c2cc1OC [Example 49, 3-(4-Fluorophenyl)-1-(2-hydroxyethyl)-2,4-dioxo-1,2,3,4-tetrahydropyrimidine-5-carboxylic acid [4-(6,7-dimethoxyquinolin-4-yloxy)-3-fluorophenyl]-amide] | < 10 nM | < 10 nM
14 | COc1cc2nccc(Oc3ccc(NC(=O)c4cn(CCF)c(=O)n(-c5ccc(F)cc5)c4=O)cc3F)c2cc1OC [Example 69, 1-(2-Fluoro-ethyl)-3-(4-fluoro-phenyl)-2,4-dioxo-1,2,3,4-tetrahydro-pyrimidine-5-carboxylic acid [4-(6,7-dimethoxy-quinolin-4-yloxy)-3-fluoro-phenyl]-amide] | < 10 nM | < 10 nM
15 | CCCn1cc(C(=O)Nc2ccc(C(=O)c3ccnc4cc(OC)c(OC)cc34)c(F)c2)c(=O)n(-c2ccc(F)cc2)c1=O [Example 102, 3-(4-Fluoro-phenyl)-2,4-dioxo-1-propyl-1,2,3,4-tetrahydro-pyrimidine-5-carboxylic acid [4-(6,7-dimethoxy-quinoline-4-carbonyl)-3-fluoro-phenyl]-amide] | < 10 nM | < 10 nM
16 | CCn1cc(C(=O)Nc2ccc(Oc3ccnc4cc(OC)c(OC)cc34)cc2OC)c(=O)n(-c2ccc(F)cc2)c1=O [Example 143, 1-Ethyl-3-(4-fluorophenyl)-2,4-dioxo-1,2,3,4-tetrahydropyrimidine-5-carboxylic acid [4-(6,7-dimethoxy-quinolin-4-yloxy)-2-methoxyphenyl]-amide] | < 10 nM | < 10 nM
17 | CCCn1cc(C(=O)Nc2ccc(Oc3ccnc4cc(OC)c(OC)cc34)c(F)c2)c(=O)n(-c2ccc(F)cc2)c1=O [Example 11, 3-(4-Fluorophenyl)-2,4-dioxo-1-propyl-1,2,3,4-tetrahydropyrimidine-5-carboxylic acid [4-(6,7-dimethoxyquinolin-4-yloxy)-3-fluorophenyl]-amide] | < 10 nM | 10 to 100 nM
18 | COc1cc2nccc(Oc3ccc(NC(=O)c4cn(CCN(C)C)c(=O)n(-c5ccc(F)cc5)c4=O)cc3F)c2cc1OC [Example 20, 1-(2-Dimethylaminoethyl)-3-(4-fluorophenyl)-2,4-dioxo-1,2,3,4-tetrahydropyrimidine-5-carboxylic acid [4-(6,7-dimethoxyquinolin-4-yloxy)-3-fluorophenyl]-amide] | < 10 nM | 10 to 100 nM
19 | COc1cc2nccc(Oc3ccc(NC(=O)c4cn(CCc5ccc(F)cc5)c(=O)n(-c5ccc(F)cc5)c4=O)cc3F)c2cc1OC [Example 79, 3-(4-Fluoro-phenyl)-1-[2-(4-fluoro-phenyl)-ethyl]-2,4-dioxo-1,2,3,4-tetrahydro-pyrimidine-5-carboxylic acid [4-(6,7-dimethoxy-quinolin-4-yloxy)-3-fluoro-phenyl]-amide] | < 10 nM | 10 to 100 nM
20 | C=CCn1cc(C(=O)Nc2ccc(Oc3ccnc4cc(OC)c(OC)cc34)c(F)c2)c(=O)n(-c2ccc(F)cc2)c1=O [Example 9, 1-Allyl-3-(4-fluorophenyl)-2,4-dioxo-1,2,3,4-tetrahydropyrimidine-5-carboxylic acid [4-(6,7-dimethoxyquinolin-4-yloxy)-3-fluorophenyl]-amide] | < 10 nM | < 10 nM
21 | CCN(CC)C(=O)Cn1cc(C(=O)Nc2ccc(Oc3ccnc4cc(OC)c(OC)cc34)c(F)c2)c(=O)n(-c2ccc(F)cc2)c1=O [Example 66, 1-Diethylcarbamoylmethyl-3-(4-fluoro-phenyl)-2,4-dioxo-1,2,3,4-tetrahydro-pyrimidine-5-carboxylic acid [4-(6,7-dimethoxy-quinolin-4-yloxy)-3-fluoro-phenyl]-amide] | < 10 nM | < 10 nM
22 | COc1cc2nccc(Oc3ccc(NC(=O)c4nn(C)c(=O)n(CC5CC5)c4=O)cc3F)c2cc1OC [Example 125, 4-Cyclopropylmethyl-2-methyl-3,5-dioxo-2,3,4,5-tetrahydro-[1,2,4]triazine-6-carboxylic acid [4-(6,7-dimethoxy-quinolin-4-yloxy)-3-fluoro-phenyl]-amide] | < 10 nM | 10 to 100 nM
23 | COc1cc2nccc(Oc3ccc(NC(=O)c4cn(C)c(=O)n(-c5ccc(F)cc5)c4=O)cc3)c2cc1OC [Example 18, 3-(4-Fluorophenyl)-1-methyl-2,4-dioxo-1,2,3,4-tetrahydropyrimidine-5-carboxylic acid [4-(6,7-dimethoxyquinolin-4-yloxy)-phenyl]-amide] | < 10 nM | 10 to 100 nM
